Measured values: PubChem BioAssay AID248 (DTP/NCI, 2004)
Toxic doses and inconclusive results are not listed. Rule as the data show it: active = T/C of 150% or more; inactive = T/C below 125%.

Tested on: L1210 leukemia ip in BDF1 mice, survival T/C
Experiment: NCI In Vivo Anticancer Drug Screen. Data for tumor model L1210 Leukemia (intraperitoneal) in B6D2F1 (BDF1) mice
Conditions: endpoint: mean survival time, higher = longer survival
In short: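 Antitumor effect is assessed in tumor-bearing animals. Survival in the compound arm is compared with a vehicle-dosed control arm and expressed as their quotient.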

[1] = dose: 6.25 mg/kg/injection, schedule: Q01DX009 (ip), vehicle: saline with Tween-80
[2] = dose: 30.0 mg/kg/injection, schedule: Q01DX Z (ip), vehicle: saline
[3] = dose: 100.0 mg/kg/injection, schedule: Q01DX Z (ip), vehicle: saline
[4] = dose: 100.0 mg/kg/injection, schedule: Q04DX003 (ip), vehicle: other
[5] = dose: 200.0 mg/kg/injection, schedule: Q04DX003 (ip), vehicle: other
[6] = dose: 100.0 mg/kg/injection, schedule: Q01DX001 (ip), vehicle: saline
[7] = dose: 100.0 mg/kg/injection, schedule: Q01DX009 (ip), vehicle: saline with Tween-80
[8] = dose: 200.0 mg/kg/injection, schedule: Q01DX009 (ip), vehicle: saline with Tween-80
[9] = dose: 200.0 mg/kg/injection, schedule: Q01DX001 (ip), vehicle: saline
[10] = dose: 400.0 mg/kg/injection, schedule: Q01DX001 (ip), vehicle: saline

Measured: T/C

COc1ccccc1C(c1ccccc1OC)N(C)C(C)(C)CO
inactive: dose: 6.25 mg/kg/injection, schedule: Q01DX009 (ip), vehicle: saline sonified 102 % of control | dose: 12.5 mg/kg/injection, schedule: Q01DX009 (ip), vehicle: saline sonified 101 % of control | dose: 25.0 mg/kg/injection, schedule: Q01DX009 (ip), vehicle: saline sonified 106 % of control

CSCC1OC(n2cnc3c(N)nc(Cl)nc32)C(O)C1O (stereo unspecified)
inactive: dose: 3.12 mg/kg/injection, schedule: Q01DX009 (ip), vehicle: saline with Tween-80 97 % of control | [1] 102 % of control | dose: 12.5 mg/kg/injection, schedule: Q01DX009 (ip), vehicle: saline with Tween-80 107 % of control | dose: 25.0 mg/kg/injection, schedule: Q01DX009 (ip), vehicle: saline with Tween-80 91 % of control | dose: 25.0 mg/kg/injection, schedule: Q04DX003 (ip), vehicle: saline with Tween-80 97 % of control | dose: 50.0 mg/kg/injection, schedule: Q04DX003 (ip), vehicle: saline with Tween-80 101 % of control | dose: 100.0 mg/kg/injection, schedule: Q01DX001 (ip), vehicle: saline with Tween-80 95 % of control | dose: 100.0 mg/kg/injection, schedule: Q04DX003 (ip), vehicle: saline with Tween-80 108 % of control

NC(N)=NCCCC(N)C(=O)NCCCCCCNC(=O)C(N)CCCN=C(N)N (stereo unspecified)
inactive: dose: 10.0 mg/kg/injection, schedule: Q01DX Z (ip), vehicle: saline 97 % of control | [2] 108 % of control | [3] 90 % of control

Cc1cc2cc(C)c3cccc(C)c3c2c2c(C)cccc12
inactive: dose: 100.0 mg/kg/injection, schedule: Q01DX009 (ip), vehicle: Klucel (hydroxypropylcellulose) (HPC) 102 % of control | [4] 95 % of control | dose: 200.0 mg/kg/injection, schedule: Q01DX009 (ip), vehicle: Klucel (hydroxypropylcellulose) (HPC) 106 % of control | [5] 97 % of control | dose: 400.0 mg/kg/injection, schedule: Q01DX009 (ip), vehicle: Klucel (hydroxypropylcellulose) (HPC) 96 % of control | dose: 400.0 mg/kg/injection, schedule: Q04DX003 (ip), vehicle: other 90 % of control

CCOC(=O)c1c(C)[nH]c2c1C(=O)C(=O)C=C2
inactive: [6] 90 % of control

NCc1cc[n+]([O-])cc1
inactive: dose: 25.0 mg/kg/injection, schedule: Q04DX002 (ip), vehicle: saline 102 % of control | dose: 50.0 mg/kg/injection, schedule: Q04DX002 (ip), vehicle: saline 102 % of control | dose: 100.0 mg/kg/injection, schedule: Q04DX002 (ip), vehicle: saline 102 % of control | dose: 400.0 mg/kg/injection, schedule: Q04DX002 (ip), vehicle: saline 88 % of control

CC(C)CC(N)C(=O)NCCCl (stereo unspecified)
inactive: [2] 88 % of control | [3] 102 % of control | dose: 300.0 mg/kg/injection, schedule: Q01DX Z (ip), vehicle: saline 88 % of control

COCC1=CC(=O)CCC1CC1OC1(C)C (stereo unspecified)
inactive: dose: 50.0 mg/kg/injection, schedule: Q01DX009 (ip), vehicle: saline with Tween-80 96 % of control | [7] 96 % of control | [8] 96 % of control

N#CCC(N)=C(C#N)C#N
inactive: dose: 100.0 mg/kg/injection, schedule: Q01DX001 (ip), vehicle: carboxymethylcellulose (CMC) 94 % of control | dose: 100.0 mg/kg/injection, schedule: Q01DX Z (ip), vehicle: carboxymethylcellulose (CMC) 94 % of control | dose: 200.0 mg/kg/injection, schedule: Q01DX001 (ip), vehicle: carboxymethylcellulose (CMC) 103 % of control

COc1cc(/C=C/C=C/C(=O)N2CCCCC2)ccc1O
inactive: [7] 88 % of control | [8] 92 % of control

CC(C1CCC2CCC3CCCC1C32)C1CCC2CCC3CCCC1C32 (stereo unspecified)
inactive: dose: 100.0 mg/kg/injection, schedule: Q01DX001 (ip), vehicle: other 99 % of control | dose: 200.0 mg/kg/injection, schedule: Q01DX001 (ip), vehicle: other 103 % of control | dose: 400.0 mg/kg/injection, schedule: Q01DX001 (ip), vehicle: other 101 % of control

CCOC(=O)/C=C/C(F)(F)C(F)(F)C(F)(F)C(F)(F)C(F)(F)C(F)(F)C(F)(F)F
inactive: dose: 100.0 mg/kg/injection, schedule: Q01DX009 (ip), vehicle: saline 98 % of control | dose: 200.0 mg/kg/injection, schedule: Q01DX009 (ip), vehicle: saline 105 % of control | dose: 400.0 mg/kg/injection, schedule: Q01DX009 (ip), vehicle: saline 105 % of control

COc1cc(C)c(/C=N/NC(=O)c2ccncc2)cc1C
inactive: dose: 100.0 mg/kg/injection, schedule: Q04DX002 (ip), vehicle: carboxymethylcellulose (CMC) 103 % of control | dose: 200.0 mg/kg/injection, schedule: Q04DX002 (ip), vehicle: carboxymethylcellulose (CMC) 96 % of control | dose: 400.0 mg/kg/injection, schedule: Q04DX002 (ip), vehicle: carboxymethylcellulose (CMC) 92 % of control

CCCCCCCCCCOC(=O)c1ccccn1
inactive: [6] 93 % of control | [9] 87 % of control

O=C1CC(C(=O)O)C(C(=O)O)C1 (stereo unspecified)
inactive: [6] 91 % of control | [9] 91 % of control

C=C1C(=O)O[C@@H]2C[C@@]3(C)CCC[C@H](C)C3=C[C@H]12
inactive: [6] 112 % of control | [9] 98 % of control | [10] 102 % of control

CC(=O)Nc1ncnc2c(C3OC(COC(C)=O)C(OC(C)=O)C3OC(C)=O)[nH]nc12 (stereo unspecified)
inactive: [6] 100 % of control | [9] 97 % of control | [10] 100 % of control

CCC(=O)c1cc(O)ccc1O
inactive: [4] 93 % of control | [5] 98 % of control

COc1cc(OC)c2c(C)c(C#N)oc2c1
inactive: dose: 100.0 mg/kg/injection, schedule: Q04DX003 (ip), vehicle: Klucel (hydroxypropylcellulose) (HPC) 97 % of control | dose: 200.0 mg/kg/injection, schedule: Q04DX003 (ip), vehicle: Klucel (hydroxypropylcellulose) (HPC) 97 % of control | dose: 400.0 mg/kg/injection, schedule: Q04DX003 (ip), vehicle: Klucel (hydroxypropylcellulose) (HPC) 98 % of control

CCCCCCCC/C=C\CCCCCCCCN1CC(C(=O)[O][Pb]([CH2]C)([CH2]C)[CH2]C)CC1=O (stereo unspecified)
inactive: dose: 1.5 mg/kg/injection, schedule: Q01DX009 (ip), vehicle: saline with Tween-80 100 % of control | dose: 3.0 mg/kg/injection, schedule: Q01DX009 (ip), vehicle: saline with Tween-80 101 % of control | dose: 6.0 mg/kg/injection, schedule: Q01DX009 (ip), vehicle: saline with Tween-80 100 % of control | [1] 94 % of control | dose: 12.5 mg/kg/injection, schedule: Q04DX002 (ip), vehicle: saline with Tween-80 108 % of control | dose: 25.0 mg/kg/injection, schedule: Q04DX002 (ip), vehicle: saline with Tween-80 105 % of control

CO[C](=O)[Hg][c]1ccc(N=Cc2ccc(N(C)C)cc2Cl)cc1
inactive: dose: 1.56 mg/kg/injection, schedule: Q01DX001 (ip), vehicle: saline with Tween-80 99 % of control | dose: 3.13 mg/kg/injection, schedule: Q01DX001 (ip), vehicle: saline with Tween-80 103 % of control | dose: 6.25 mg/kg/injection, schedule: Q01DX001 (ip), vehicle: saline with Tween-80 89 % of control

Cc1ccc([As+](c2ccccc2)(c2ccccc2)c2ccccc2)cc1
inactive: dose: 5.0 mg/kg/injection, schedule: Q01DX001 (ip), vehicle: saline 101 % of control | dose: 10.0 mg/kg/injection, schedule: Q01DX001 (ip), vehicle: saline 95 % of control | dose: 20.0 mg/kg/injection, schedule: Q01DX001 (ip), vehicle: saline 96 % of control

NC(=O)/C=C\C(=O)O (tested in a mixture with another compound)
inactive: dose: 31.25 mg/kg/injection, schedule: Q#A X Z (ip), vehicle: carboxymethylcellulose (CMC) 106 % of control | dose: 62.5 mg/kg/injection, schedule: Q#A X Z (ip), vehicle: carboxymethylcellulose (CMC) 110 % of control | dose: 125.0 mg/kg/injection, schedule: Q#A X Z (ip), vehicle: carboxymethylcellulose (CMC) 118 % of control | dose: 250.0 mg/kg/injection, schedule: Q#A X Z (ip), vehicle: carboxymethylcellulose (CMC) 108 % of control
